Laboratory results: patent US11795190B2, “D-glycero-B-D-heptose 1-phosphate (HMP) conjugates and use for targeted immune modulation” (NATIONAL RESEARCH COUNCIL OF CANADA, priority 2017, dated 2023)

How the values were obtained:
[1] = test system: HCT 116 cells deficient in TIFA protein expression (TIFA KO); assay: IL-8 ELISA in TIFA knockout HCT 116 cells; format: cell-based, human; conditions: TIFA KO HCT 116
Experimental: (§1) Wild type (WT) or TIFA knockout (TIFA KO) cells were treated with compounds in the presence of digitonin for 20 min, treatment was removed, cells were washed and then cultured in normal medium without the synthetic compounds for 6 hr before IL-8 levels in culture supernatants were measured by ELISA. (A) Cells were treated with water or 10 μg/mL of the indicated compound. Data are means±standard error mean of technical triplicates. (B) Cells were treated with the NOD1 agonist C12-iE-DAP (39.8 μM) or with two different molar concentrations of compounds (30 μM or 150 μM). Two batches of dd-β-HBP and dd-β-HMP synthesized independently of one another were tested (batch #1 and batch #2) to assess consistency of the chemical synthesis. Data are means±standard error mean of two (150 μM treatment) or three (all other treatments) independent experiments. Nod1 agonist: C12-iE-DAP (20 μg/ml, 39.8 μM); JS-12: D-glycero-D-manno-heptose; JS-2: D-glycero-D-manno-heptose 7-phosphate; JS-7:D-glycero-β-D-manno-heptose-phosphate; JS-8: d-glycero-α-d-manno-heptose-phosphate; JS-9: β-d-mannose phosphate; JS-6:d-glycero-β-d-manno heptose 1,7-biphosphate; JS-5: d-glycero-α-d-manno heptose 1,7-biphosphate.
(§2) FIG. 11. Stimulation of human colonic epithelial cells by compounds/products according to the invention. Human colonic epithelial cells (HCT 116) that were either wild type (WT) or deficient in TIFA protein expression (knockout, KO) were stimulated for 20 minutes in permeabilization buffer (5 μg/mL digitonin) in the presence of water or 10 μg/mL, 30 μg/mL, or 50 μg/mL of indicated synthetic compounds according to the invention. Treatment was removed, cells were washed, and cells were incubated for 6 hours in complete media before IL-8 levels in culture supernatants was measured by ELISA. The results are the mean±standard error of the mean of three technical replicates. JS-10: 7-O-(Aminoethyl)-D-glycero-β-D-manno-heptopyranose phosphate; JS-11: 7-O-(Aminoethyl) -D-glycero-D-manno-heptopyranose; JS-12: D-glycero-D-manno-heptose; Js-13: pH-Rhodo -7-O-(aminoethyl)-D-glycero-β-D-manno-heptopyranose phosphate.
(§3) FIG. 13. Stimulation of human colonic epithelial cells by compounds/products according to the invention. Human colonic epithelial cells (HCT 116) that were either wild type (WT) or deficient in TIFA protein expression (knockout, TIFA KO) were stimulated for 20 minutes in permeabilization buffer (5 μg/mL digitonin) in the presence of water, 20 μg/mL of the Nod1 agonist C12-iE-DAP (39.8 μM, which induces inflammation in a TIFA-independent manner) or 30 μM or 150 μM of synthetic compound according to the invention. Treatment was removed, cells were washed, and cells were incubated for 6 hours in complete media before IL-8 levels in culture supernatants were measured by ELISA. The results are the mean±standard error of the mean of two (150 μM treatment) or three (all other treatments) independent experiments. #=none detected, JS-10: 7-O-(Aminoethyl)-d-glycero-β-d-manno-heptopyranose phosphate; JS-14: Biotin-7-O-(aminoethyl)-d-glycero-β-d-manno-heptopyranose phosphate, Nod1 agonist: C12-iE-DAP (20 μg/ml, 39.8 μM).
as §3, with “16.” for “13.”, “of” for “of the mean of two (150 μM treatment) or”, “technical replicates. […]” for “(all other treatments) independent experiments. #=none detected, JS-10: 7-O-(Aminoethyl)-d-glycero-β-d-manno-heptopyranose phosphate; JS-14: Biotin-7-O-(aminoethyl)-d-glycero-β-d-manno-heptopyranose phosphate, Nod1 agonist: C12-iE-DAP (20 μg/ml, 39.8 μM).”

[2] = test system: human macrophage cells (THP-1); assay: IL-8 ELISA in THP-1 cells after digitonin-permeabilised stimulation; format: cell-based; conditions: FIG. 15, higher (150 μM) concentrations, digitonin 20 min, IL-8 after 6 hours
Experimental: FIG. 15. Stimulation of human macrophages by compounds/products according to the invention. Human macrophage cells (THP-1) were stimulated for 20 minutes in permeabilization buffer (5 μg/mL digitonin) in the presence of water, 39.8 μM of the Nod1 agonist C12-iE-DAP (which stimulates in a TIFA-independent manner), or either 30 μM or 150 μM of synthetic compound according to the invention. Treatment was removed, cells were washed, and cells were incubated for 6 hours in complete media before the IL-8 levels in culture supernatants were measured by ELISA. The results are the mean and standard error of the mean of three technical replicates. Nod1 agonist: C12-iE-DAP (20 μg/ml, 39.8 μM); JS-7: JS-7:D-glycero-β-D-manno-heptose-phosphate; JS-10: 7-O-(Aminoethyl)-D-glycero-β-D-manno-heptopyranose phosphate; JS-14: Biotin-7-O-(aminoethyl)-D-glycero-β-D-manno-heptopyranose phosphate.

[3] = test system: human colonic epithelial cells (HCT 116), wild type; assay: IL-8 ELISA in wild type HCT 116 cells after digitonin-permeabilised stimulation; format: cell-based; conditions: FIG. 11; WT HCT 116; 10, 30 or 50 μg/mL, digitonin 20 min, IL-8 after 6 hours
Experimental: as §1, §2
FIG. 13. […] Treatment was removed, cells were washed, and cells were incubated for 6 hours in complete media before IL-8 levels in culture supernatants were measured by ELISA. The results are the mean±standard error of the mean of two (150 μM treatment) or three (all other treatments) independent experiments. #=none detected, JS-10: 7-O-(Aminoethyl)-d-glycero-β-d-manno-heptopyranose phosphate; JS-14: Biotin-7-O-(aminoethyl)-d-glycero-β-d-manno-heptopyranose phosphate, Nod1 agonist: C12-iE-DAP (20 μg/ml, 39.8 μM).
FIG. 16. […] Treatment was removed, cells were washed, and cells were incubated for 6 hours in complete media before IL-8 levels in culture supernatants were measured by ELISA. […]

NCCOC[C@@H](O)C1O[C@@H](OP(=O)([O-])[O-])C(O)[C@@H](O)[C@@H]1O.[Na+].[Na+] (stereo partly drawn) [JS-10a, 7-O-(Aminoethyl)-D-glycero-β-D-manno-heptopyranose phosphate]
activity in TIFA KO cells (IL-8), TIFA dependence ([1]; FIG. 11, 10, 30 or 50 μg/mL): relative absence of activity | activity in TIFA KO cells (IL-8), TIFA dependence ([1]; FIG. 13, 30 μM or 150 μM (Nod1 agonist 39.8 μM)): relative absence of activity | inflammatory response (IL-8 in culture supernatant) [2]: stimulate an inflammatory response | inflammatory response (IL-8 in culture supernatant) [3]: modest inflammatory response
